Data published in ChEMBL document CHEMBL5104180, “Design, Synthesis, and Evaluation of New Sugar-Substituted Imidazole Derivatives as Selective c-MYC Transcription Repressors Targeting the Promoter G-Quadruplex” (J Med Chem, 2022).
pIC50, pKd: −log10 of the molar value. Active and inactive are the calls of the source. The calls are words filed in the database; no cut-off is given here.

How the values were obtained:
[1] = tested on: Quadruplex DNA; test: Stabilization of c-MYC G4 quadruplex DNA Pu22 (unknown origin) assessed as change in melting temperature at 2 uM by CD spectroscopy; type: nucleic-acid assay
[2] = biological target: Quadruplex DNA; test: Binding affinity to c-MYC G4- quadruplex DNA Pu22 (unknown origin) assessed as binding constant by SPR analysis; type: nucleic-acid assay
[3] = Binding affinity to G-rich KRAS DNA (unknown origin) assessed as binding constant by SPR analysis
[4] = Binding affinity to G-rich HRAS DNA (unknown origin) assessed as binding constant by SPR analysis
[5] = Binding affinity to G-rich NRAS RNA (unknown origin) assessed as binding constant by SPR analysis
[6] = Binding affinity to human G-rich Htg22 DNA assessed as binding constant by SPR analysis
[7] = Binding affinity to Hairpin DNA (unknown origin) assessed as binding constant by SPR analysis
[8] = biological target: Quadruplex DNA; test: Binding affinity to c-MYC G4 quadruplex DNA Pu22 (unknown origin) assessed as binding constant by SPR analysis; type: nucleic-acid assay
[9] = biological target: RNA; test: Binding affinity to NRAS RNA mutant (unknown origin) assessed as binding constant by SPR analysis
[10] = tested on: HepG2; test: Cytotoxicity against human HepG2 cells assessed as reduction in cell viability measured after 48 hrs by MTT assay; type: functional, cell-based; details: HepG2, 48 h
[11] = tested on: MDA-MB-231; test: Cytotoxicity against human MDA-MB-231 cells assessed as reduction in cell viability measured after 48 hrs by MTT assay; type: functional, cell-based; details: MDA-MB-231, 48 h
[12] = Cytotoxicity against human HBL-100 cells assessed as reduction in cell viability measured after 48 hrs by MTT assay; type: toxicity, cell-based
[13] = tested on: NM23-H2/c-MYC G4 quadruplex DNA; test: Disruption of NM23-H2/c-MYC G4 quadruplex DNA (unknown origin) interaction incubated for 1 hrs by ELISA; type: protein assay
[14] = tested on: BLM/c-MYC G4 quadruplex DNA; test: Disruption of BLM/c-MYC G4 quadruplex DNA (unknown origin) interaction incubated for 1 hrs by ELISA; type: protein assay
[15] = tested on: DHX36/c-MYC G4 quadruplex DNA; test: Disruption of DHX36/c-MYC G4 quadruplex DNA (unknown origin) interaction incubated for 1 hrs by ELISA; type: protein assay
[16] = tested on: MDA-MB-231; test: Cytotoxicity against human MDA-MB-231 cells measured after 48 hrs; type: functional, cell-based
[17] = tested on: Quadruplex DNA; test: Inhibition of c-MYC G4 quadruplex DNA in HEK293T cells co-transfected with Renilla and firefly luciferase assessed as decrease in relative luciferase at 2.5 to 5 uM measured after 24 hrs by dual luciferase reporter assay; type: cell-based; details: Homo sapiens, dose 2.5-5 µM
[18] = tested on: Quadruplex DNA; test: Inhibition of c-MYC G4 quadruplex DNA in HEK293T cells co-transfected with Renilla and firefly luciferase assessed as decrease in relative luciferase measured after 24 hrs by dual luciferase reporter assay; type: cell-based; details: Homo sapiens
[19] = tested on: MDA-MB-231; test: Downregulation of c-MYC mRNA level in human MDA-MB-231 cells measured after 24 hrs by RT-PCR analysis; type: functional, cell-based
[20] = tested on: MDA-MB-231; test: Downregulation of c-MYC expression in human MDA-MB-231 cells measured after 48 hrs by western blot analysis; type: functional, cell-based
[21] = tested on: MCF7; test: Cytotoxicity against human MCF7 cells measured after 48 hrs; type: functional, cell-based
[22] = tested on: HepG2; test: Cytotoxicity against human HepG2 cells measured after 48 hrs; type: functional, cell-based
[23] = tested on: SiHa; test: Cytotoxicity against human SiHa cells measured after 48 hrs; type: functional, cell-based
[24] = tested on: MDA-MB-231; test: Antitumor activity against human MDA-MB-231 cells xenografted in BALB/c-nu/nu mouse assessed as relative increment ratio at 2.5 mg/kg, ip measured for 24 days; type: functional; details: time 24 day
[25] = tested on: MDA-MB-231; test: Antitumor activity against human MDA-MB-231 cells xenografted in BALB/c-nu/nu mouse assessed as tumor growth inhibition at 2.5 mg/kg, ip measured for 24 days; type: functional; details: MDA-MB-231, 576 h, time 24 day, read-out: TGI
[26] = tested on: Quadruplex DNA; test: Inhibition of c-MYC G4 quadruplex DNA mutant in HEK293T cells co-transfected with Renilla and firefly luciferase assessed as decrease in relative luciferase at 2.5 to 5 uM measured after 24 hrs by dual luciferase reporter assay; type: cell-based; details: Homo sapiens, dose 2.5-5 µM
[27] = tested on: MDA-MB-231; test: Downregulation of VEGF expression in human MDA-MB-231 cells measured after 48 hrs by western blot analysis; type: functional, cell-based

| SMILES | ΔTm [1] | pKd [2] | pKd [3] | pKd [4] | pKd [5] | pKd [6] | pKd [7] | pKd [8] | pKd [9] | pIC50 [10] | pIC50 [11] | also measured |
| --- | --- | --- | --- | --- | --- | --- | --- | --- | --- | --- | --- | --- |
| CCn1c2ccccc2c2cc(-c3nc(-c4ccc(N5CCN(C)CC5)cc4)c(-c4ccc(N5CCN(Cc6cn(CCOCCO[C@@H]7O[C@H](COC(C)=O)[C@@H](OC(C)=O)[C@H](OC(C)=O)[C@H]7OC(C)=O)nn6)CC5)cc4)[nH]3)ccc21 (single isomer, unassigned) | 17.8 °C | 6.00 | 4.76 | 5.09 | < 4.70 | < 4.70 | < 4.70 | < 4.70 | < 4.70 | < 4.49 | < 4.49 | – |
| COc1ccc(-n2c(-c3ccc4c(c3)c3ccccc3n4Cc3cn(CCOCCO[C@@H]4O[C@H](COC(C)=O)[C@@H](OC(C)=O)[C@H](OC(C)=O)[C@H]4OC(C)=O)nn3)nc(-c3ccc(N4CCN(C)CC4)cc3)c2-c2ccc(N3CCN(C)CC3)cc2)cc1 | 15.9 °C | 5.52 | < 4.70 | < 4.70 | < 4.70 | < 4.70 | < 4.70 | < 4.70 | < 4.70 | 4.96 | 5.19 | IC50 at 48 h [12]: 19.3 µM |
| CCn1c2ccccc2c2cc(-c3nc(-c4ccc(N5CCN(C)CC5)cc4)c(-c4ccc(N5CCN(C)CC5)cc4)n3-c3ccc(OC)cc3)ccc21 | 12.5 °C | 5.15 | 4.82 | 4.82 | < 4.70 | < 4.70 | < 4.70 | < 4.70 | < 4.70 | 5.21 | 5.29 | IC50 at 48 h [12]: 11.2 µM; pIC50 [13]: 4.59; pIC50 [14]: 4.84; pIC50 [15]: 5.30; Activity [16]: Active; inhibition [17]: Active; Activity [18]: Active; Activity [19]: Active; Activity [20]: Active; Activity [21]: Active; Activity [22]: Active; Activity [23]: Active; Activity [24]: 72.3%; inhibition in vivo at 2.5 mg/kg [25]: 55.5% |
| CCn1c2ccccc2c2cc(-c3nc(-c4ccc(N5CCN(C)CC5)cc4)c(-c4ccc(N5CCN(C)CC5)cc4)n3-c3ccc(OCCCOC4(C)O[C@H]5O[C@H](COC(C)=O)[C@@H](OC(C)=O)[C@H](OC(C)=O)[C@H]5O4)cc3)ccc21 (single isomer, unassigned) | 16 °C | 5.39 | < 4.70 | < 4.70 | < 4.70 | < 4.70 | < 4.70 | < 4.70 | < 4.70 | 5.11 | 5.44 | IC50 at 48 h [12]: 4.4 µM |
| CCn1c2ccccc2c2cc(-c3nc(-c4ccc(N5CCN(C)CC5)cc4)c(-c4ccc(N5CCN(C)CC5)cc4)n3-c3ccc(OCCOCCO)cc3)ccc21 | 20.8 °C | 5.59 | 5.09 | 5.23 | 4.80 | < 4.70 | < 4.70 | < 4.70 | < 4.70 | – | – | pIC50 [13]: 5.96; pIC50 [14]: 5.41; pIC50 [15]: 5.09 |
| Cc1sc2c(c1C)C(c1ccc(Cl)cc1)=NC(CC(=O)OC(C)(C)C)c1nnc(C)n1-2 (configuration not stated) | – | – | – | – | – | – | – | – | – | – | – | inhibition [17]: Active; Activity [18]: Active; Activity [26]: Active; Activity [19]: Active; Activity [20]: Active; Activity [27]: Active |
| CCn1c2ccccc2c2cc(-c3nc(-c4ccc(N5CCN(C)CC5)cc4)c(-c4ccc(N5CCN(C)CC5)cc4)n3-c3ccc(OCCCO[C@@H]4O[C@H](CO)[C@@H](O)[C@H](O)[C@H]4O)cc3)ccc21 (single isomer, unassigned) | 16.7 °C | 5.74 | 4.82 | 4.84 | < 4.70 | < 4.70 | < 4.70 | < 4.70 | < 4.70 | < 4.49 | < 4.49 | – |
| CCn1c2ccccc2c2cc(-c3nc(-c4ccc(N5CCN(C)CC5)cc4)c(-c4ccc(N5CCN(C)CC5)cc4)n3-c3ccc(OCCOCCO[C@@H]4O[C@H](CO)[C@@H](O)[C@H](O)[C@H]4NC(=O)C(F)(F)F)cc3)ccc21 (single isomer, unassigned) | 16.3 °C | 5.39 | 4.75 | 4.70 | 4.79 | < 4.70 | < 4.70 | < 4.70 | < 4.70 | < 4.49 | < 4.49 | – |
| CCn1c2ccccc2c2cc(-c3nc(-c4ccc(N5CCN(C)CC5)cc4)c(-c4ccc(N5CCN(C)CC5)cc4)n3-c3ccc(OCCCO[C@@H]4O[C@H](CO)[C@H](O)[C@H](O)[C@H]4O)cc3)ccc21 (single isomer, unassigned) | 16.9 °C | 5.85 | < 4.70 | 4.78 | < 4.70 | < 4.70 | < 4.70 | < 4.70 | < 4.70 | < 4.49 | < 4.49 | – |
| CCn1c2ccccc2c2cc(-c3nc(-c4ccc(N5CCN(C)CC5)cc4)c(-c4ccc(N5CCN(Cc6cn([C@@H]7O[C@H](CO)[C@H](O)[C@H](O)[C@H]7O)nn6)CC5)cc4)[nH]3)ccc21 (single isomer, unassigned) | 18.4 °C | 5.80 | 5.24 | 5.57 | 5.00 | < 4.70 | < 4.70 | < 4.70 | < 4.70 | – | – | – |
| CCn1c2ccccc2c2cc(-c3nc(-c4ccc(N5CCN(C)CC5)cc4)c(-c4ccc(N5CCN(C)CC5)cc4)n3-c3ccc(OCCOCCOC4(C)O[C@H]5O[C@H](COC(C)=O)[C@@H](OC(C)=O)[C@H](OC(C)=O)[C@H]5O4)cc3)ccc21 (single isomer, unassigned) | 22.1 °C | 5.74 | 4.90 | 4.86 | < 4.70 | < 4.70 | < 4.70 | < 4.70 | < 4.70 | 5.52 | 5.54 | IC50 at 48 h [12]: 77.8 µM; pIC50 [13]: 5.43; pIC50 [14]: 5.17; pIC50 [15]: 4.80 |
| CCn1c2ccccc2c2cc(-c3nc(-c4ccc(N5CCN(C)CC5)cc4)c(-c4ccc(N5CCN(Cc6cn(CCOCCO)nn6)CC5)cc4)[nH]3)ccc21 | 18.7 °C | 5.92 | 5.25 | 5.55 | 4.84 | < 4.70 | < 4.70 | < 4.70 | < 4.70 | – | – | – |
| CCn1c2ccccc2c2cc(-c3nc(-c4ccc(N5CCN(C)CC5)cc4)c(-c4ccc(N5CCN(C)CC5)cc4)n3-c3ccc(OCCOCCO[C@@H]4O[C@H](CO)[C@H](O)[C@H](O)[C@H]4O)cc3)ccc21 (single isomer, unassigned) | 16.2 °C | 5.70 | 4.74 | 4.84 | 4.79 | < 4.70 | < 4.70 | < 4.70 | < 4.70 | < 4.49 | < 4.49 | – |
| COc1ccc(-n2c(-c3ccc4c(c3)c3ccccc3n4Cc3cn(CCOCCO[C@@H]4O[C@H](CO)[C@@H](O)[C@H](O)[C@H]4O)nn3)nc(-c3ccc(N4CCN(C)CC4)cc3)c2-c2ccc(N3CCN(C)CC3)cc2)cc1 (single isomer, unassigned) | 17.7 °C | 5.66 | 4.75 | 4.81 | 4.72 | < 4.70 | < 4.70 | < 4.70 | < 4.70 | < 4.49 | < 4.49 | – |
| CCn1c2ccccc2c2cc(-c3nc(-c4ccc(N5CCN(C)CC5)cc4)c(-c4ccc(N5CCN(C)CC5)cc4)n3-c3ccc(OCCOCCO[C@@H]4O[C@H](CO)[C@@H](O)[C@H](O)[C@H]4O)cc3)ccc21 (single isomer, unassigned) | 18 °C | 5.80 | < 4.70 | < 4.70 | < 4.70 | < 4.70 | < 4.70 | < 4.70 | < 4.70 | < 4.49 | < 4.49 | – |
